The values that follow come from patent publication US8071640B2, “Urea oligomers, their preparation process and pharmaceutical compositions containing them” (Centre National de la Recherche Scientifique, priority 2001, dated 2011).

One data set deals with erythrocytes. The experiment in a line: Hemolysis test. Type of data set: cell-based, monkey (macaque). As to conditions: 100 μg per ml of suspension (positive control); macaque erythrocytes, one hour at 37° C. The method, then:
A compound acting on the membranes of bacteria can potentially disturb the membranes of mammalian cells. The red blood cells or erythrocytes serves as a model of eukaryotic cells where the degree of membrane permeation is easily evaluated by measuring the quantity of hemoglobin released through the pores of the embrittled membranes and the concentration of which is directly proportional to the optical density at 450 nm.
The erythrocytes are prepared from freshly sampled monkey blood (macaque). The heparinized blood is centrifuged and washed three times with cold PBS and resuspended at 10% (v/v) in PBS. 10 μl of an aqueous solution of the products to be tested are added to 90 μl of suspension of red blood cells. The erythrocytes are incubated for one hour at 37° C. The suspension is centrifuged in order to recover the supernatant which is more or less red depending on the degree of hemolysis. The concentration of hemoglobin released in the supernatant is measured by the optical density at 450 nm. In the negative control the red blood cells are incubated in the absence of product and show an OD of 0.100% hemolysis is obtained with 100 μg cetylpyridinium chloride per ml of suspension. The degree of hemolysis is evaluated with respect to the positive control for the different concentrations of the products tested.

A further data set concerns Pseudomonas aeruginosa. Type of data set: cell-based. On the procedure:
(§1) The compounds tested all form part of the polyurea class and were obtained in the laboratory by chemical route. Tests for the inhibition of the growth of bacteria and fungi were carried out in liquid tests. The specific activity of each molecule is expressed by the minimal inhibitory concentration on the growth of the bacteria and/or fungi, called MIC. The MIC is a value specific to each compound and varies as a function of the organisms tested. It should be noted that the MIC values follow a logarithmic progression, which is due to a two-by-two dilution of the compounds tested in a series of tests. The molecules tested were presented in the form of salts which are soluble in water and thus the culture medium of the microorganisms.
(§2) For carrying out the tests, 96-well plates were used. Each well contains 90 μl of a suspension of bacteria diluted in PB medium (Poor Broth, Difco) in order to have a final concentration of 1 mOD. 10 μl of compound in solution in sterile water at concentrations ranging from 1 mg/ml to 2 μg/ml are added to the tests. The plates are placed under stirring at 29° C. for 24 hours. The growth of the bacteria is measured by measuring the turbidity of the culture medium and measuring the OD at 595 nm. The value of the MIC corresponds to the concentration of the substances to be tested where no growth of bacteria is noted (OD=0).

The next data set relates to Salmonella cloacae. Type of data set: cell-based. The method, then: as §1, §2
For another data set, the system named is Micrococcus luteus. The data set is classed as cell-based. On the procedure:
as §1, §2

The test system of a further data set is Staphylococcus aureus. Type of data set: cell-based. The note with it: 24 h. The method, then: as §1, §2
The subject of the next data set is E. coli D363. The data set is classed as cell-based. On the procedure:
as §1, §2

In another data set the test system is Aspergillus fumigatus. The data set is classed as cell-based. The method, then:
as §1, with “microorganisms. The antifungal tests are carried out in similar fashion with ½ PDB (Potato dextrose broth, Difco) as culture medium and 10,000 spores per ml of culture. An optical control under a reverse microscope is necessary in the case of the fungi in order to evaluate the formation of the mycelia of the filamentous fungi (Aspergillus fumigatus, Neurospora crassa). The CMC is determined after culture for 48 hours at 29° C. and corresponds to the concentration where no formation of mycelium is observed.” for “microorganisms.”

The next data set relates to Neurospora crassa. The data set is classed as cell-based. The method, then: as §1, with “microorganisms. The antifungal tests are carried out in similar fashion with ½ PDB (Potato dextrose broth, Difco) as culture medium and 10,000 spores per ml of culture. An optical control under a reverse microscope is necessary in the case of the fungi in order to evaluate the formation of the mycelia of the filamentous fungi (Aspergillus fumigatus, Neurospora crassa). The CMC is determined after culture for 48 hours at 29° C. and corresponds to the concentration where no formation of mycelium is observed.” for “microorganisms.”

Like-named read-outs stand apart in the source and are kept apart here. Where only a bound is given, the exact number is not on record here.

`CCCCCCCCCCCCCCCC[n+]1ccccc1` [cetylpyridinium chloride] came in with a hemolysis with erythrocytes of 100%.

With “H-YLVFKAVY-NH2 [Peptide L (control), H-Tyr-Leu-Val-Phe-Lys-Ala-Val-Tyr-NH2]”, the Minimum inhibitory concentration was 82 µM in the data set on Pseudomonas aeruginosa (24 h); 121 µg/mL with Pseudomonas aeruginosa (Pseudomonas aeruginosa, PB medium, 24 hours at 29° C.); 2.6 µM in the data set with Salmonella cloacae (24 h); 3.8 µg/mL in the data set with Salmonella cloacae (Salmonella cloacae, PB medium, 24 hours at 29° C.); 2.6 µM with Micrococcus luteus (24 h); 3.8 µg/mL in the data set with Micrococcus luteus (Micrococcus luteus, PB medium, 24 hours at 29° C.). Further, the Minimum inhibitory concentration with Staphylococcus aureus is above 121 µg/mL; in the data set on E. coli D363 (D363, 24 h) it was 2.6 µM; in the data set on E. coli D363 (E. coli D363, PB medium, 24 hours at 29° C.), 3.8 µg/mL; with Aspergillus fumigatus (48 h) it was 82 µM; with Aspergillus fumigatus (Aspergillus fumigatus, ½ PDB, 10,000 spores per ml, 48 hours at 29° C.), 121 µg/mL; in the data set with Neurospora crassa (48 h), 20 µM. In addition, in the data set on Neurospora crassa (Neurospora crassa, ½ PDB, 10,000 spores per ml, 48 hours at 29° C.), the Minimum inhibitory concentration was found to be 30 µg/mL.
